From BindingDB's records for doi:10.1021/jm00051a003 (University of Washington, 1995)

assay: Tested for the binding affinity against the Delta opioid receptor in guinea pig brain using [3H]DPDPE

| Compound | IC50 [nM] |
| --- | --- |
| Oc1ccc2c3c1OC1[C@@H](OCc4ccc5ccccc5c4)CCC4(O)C(C2)N(CC2CC2)CCC314 (stereo not given in full) | 20 |
| Oc1ccc2c3c1OC1[C@H](OCc4ccc5ccccc5c4)CCC4(O)C(C2)N(CC2CC2)CCC314 (stereo not given in full) | 25 |
| Oc1ccc2c3c1OC1[C@@H](OCc4cccc5ccccc45)CCC4(O)C(C2)N(CC2CC2)CCC314 (stereo not given in full) | 6.6 |
| Oc1ccc2c3c1OC1[C@@H](OCc4ccc(-c5ccccc5)cc4)CCC4(O)C(C2)N(CC2CC2)CCC314 (stereo not given in full) | 19 |
| Oc1ccc2c3c1OC1[C@@H](OCc4ccccc4)CCC4(O)C(C2)N(CC2CC2)CCC314 (stereo not given in full) | 1.4 |
| Oc1ccc2c3c1OC1[C@H](OCc4cccc5ccccc45)CCC4(O)C(C2)N(CC2CC2)CCC314 (stereo not given in full) | 5.5 |
| Oc1ccc2c3c1OC1[C@@H](OCc4c5ccccc5cc5ccccc45)CCC4(O)C(C2)N(CC2CC2)CCC314 (stereo not given in full) | 36 |
| Oc1ccc2c3c1OC1[C@H](OCc4ccc(-c5ccccc5)cc4)CCC4(O)C(C2)N(CC2CC2)CCC314 (stereo not given in full) | 11 |
| Oc1ccc2c3c1OC1[C@H](OCc4c5ccccc5cc5ccccc45)CCC4(O)C(C2)N(CC2CC2)CCC314 (stereo not given in full) | 48 |
| O=C(COC1CCC2(O)C3Cc4ccc(O)c5c4C2(CCN3CC2CC2)C1O5)C1[C@H]2C[C@@H]3C[C@@H](C[C@H]1C3)C2 (stereo partly drawn) [17-(cyclopropylmethyl)-4,5alpha-epoxy-3,14-dihydroxy-6beta-morphinanyl 2-adamantyl-2-oxoethylether] | 30 |
